In ChEMBL document CHEMBL3774380, “Development of Noviomimetics as C-Terminal Hsp90 Inhibitors” (ACS Med Chem Lett, 2016):
Active and inactive are the calls of the source. The rule behind the calls is not given here.

Key:
[1] = species: Rattus norvegicus; assay: Inhibition of Hsp90 in rat 50B11 cells expressing human HSPA1A gene assessed as increase in Hsp70 level at 10 to 1000 nM after 16 hrs by luciferase reporter assay; format: cell-based
[2] = species: Rattus norvegicus; assay: Inhibition of Hsp90 in rat 50B11 cells assessed as increase in Hsp70 level at 0.5 to 1000 nM after 24 hrs by Western blot method; format: cell-based

SMILES | inhibition [1] | inhibition [2]
CC(=O)NCCc1ccc(O[C@@H]2CC[C@@H](OCc3ccccc3)C2)cc1-c1cccc(F)c1 | inactive | –
CC(=O)NCCc1ccc(O[C@H]2CC[C@@H](OCc3ccccc3)C2)cc1-c1cccc(F)c1 | inactive | –
CO[C@@H]1[C@@H](O)[C@@H](O)[C@H](Oc2ccc(CCNC(C)=O)c(-c3cccc(F)c3)c2)OC1(C)C | – | Active
CC(=O)NCCc1ccc(OC2CCC(O)CC2)cc1-c1cccc(F)c1 (mixture of isomers) | Active | –
CC(=O)NCCc1ccc(OC2CCC(OCc3ccccc3)CC2)cc1-c1cccc(F)c1 (mixture of isomers) | Active | Active
CC(=O)NCCc1ccc(OC2CCCC(O)C2)cc1-c1cccc(F)c1 (mixture of isomers) | Active | –
CC(=O)NCCc1ccc(OC2CCCC(OCc3ccccc3)C2)cc1-c1cccc(F)c1 (mixture of isomers) | Active | –
CC(=O)NCCc1ccc(OC2C[C@H](O)CO2)cc1-c1cccc(F)c1 (mixture of isomers) | inactive | –
CC(=O)NCCc1ccc(OC2OCCC2O)cc1-c1cccc(F)c1 (mixture of isomers) | inactive | –
CC(=O)NCCc1ccc(OC2OC[C@@H](O)[C@H]2O)cc1-c1cccc(F)c1 (mixture of isomers) | inactive | –
CC(=O)NCCc1ccc(OC2C=CCC(C)(C)C2)cc1-c1cccc(F)c1 (racemic) | inactive | –
CC(=O)NCCc1ccc(OC2C=CCCC2)cc1-c1cccc(F)c1 (racemic) | inactive | –
